SMILES strings stand for the structures.

T1 sequence (Q8K3T4 whole entry): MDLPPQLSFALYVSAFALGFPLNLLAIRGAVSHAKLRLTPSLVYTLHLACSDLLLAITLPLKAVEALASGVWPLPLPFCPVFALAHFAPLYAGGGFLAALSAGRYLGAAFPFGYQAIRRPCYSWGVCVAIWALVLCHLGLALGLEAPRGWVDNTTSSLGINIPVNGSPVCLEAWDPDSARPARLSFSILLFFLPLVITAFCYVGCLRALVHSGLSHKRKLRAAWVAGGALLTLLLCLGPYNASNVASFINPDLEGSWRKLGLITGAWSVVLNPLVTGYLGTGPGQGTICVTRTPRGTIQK

The test addresses T1, GPCR GPR40 (Rattus norvegicus, UniProt Q8K3T4).
T1 construct: expressed in transfected cells; host or cells: HEK293
The test can be described thus: In vitro FLIPR assay with recombinant cells which express the GPCR GPR40. The note with it: recombinant HEK293 cells expressing rat GPR40; agonist-induced change in intracellular Ca2+ (Fluo-4, FLIPR); 100% = 10 μM linoleic acid. The format is cell-based. As to the method: In Vitro FLIPR Assay with Recombinant Cells which Express the GPCR GPR40
Function-testing assays were performed by means of the FLIPR technique (“Fluorescence Imaging Plate Reader”, Molecular Devices Corp.). To this end, agonist-induced changes in the intracellular concentration of Ca^2+ were determined in recombinant HEK293 cells which expressed the GPCR GPR40 (species: rat). For the studies, cells were sown into 96-well microtiter plates (60 000 cells/well) and left to grow overnight. The medium was removed and the cells were incubated in buffer which contained the fluorescent dye Fluo-4. After this loading with dye, the cells were washed, test substance was added and changes in the intracellular Ca^2+ concentration were measured in the FLIPR unit. Results were presented as the percentage change relative to the control (0%: no test substance added; 100%: 10 μM reference agonist linoleic acid added) and used to calculate dose/effect curves, and EC50 values were determined.
For `CC#CC(CC(=O)O)c1ccc(OCCC(C)Oc2ccc(C(F)(F)F)cc2)cc1` (single isomer, unassigned) [Example 23, 3-{4-[(S or R)-3-(4-Trifluoromethylphenoxy)butoxy]phenyl}hex-4-ynoic acid], the EC50 (in general, the concentration that produces a half-maximal response) was 210 nM.

Consider `CC#CC(CC(=O)O)c1ccc(OCCC(C)Oc2ccc(C(F)(F)F)cc2)cc1` (single isomer, unassigned) [Example 24, 3-{4-[(R or S)-3-(4-Trifluoromethylphenoxy)butoxy]phenyl}hex-4-ynoic acid], for which the EC50 amounted to 980 nM.

As to `CC#CC(CC(=O)O)c1ccc(OCCCOc2cccc(C(C)(C)C)c2)cc1` (centres unmarked) [Example 1, 3-{4-[3-(3-tert-Butylphenoxy)propoxy]phenyl}hex-4-ynoic acid], the EC50 came to 440 nM.

In the case of `CC#CC(CC(=O)O)c1ccc(OCCOc2cccc(C(C)(C)C)c2)cc1` (centres unmarked) [Example 2, 3-{4-[2-(3-tert-Butylphenoxy)ethoxy]phenyl}hex-4-ynoic acid], the EC50 worked out at 50 nM.

As for `CC#CC(CC(=O)O)c1ccc(OCCCCOc2cccc(C(C)(C)C)c2)cc1` (centres unmarked) [Example 3, 3-{4-[4-(3-tert-Butylphenoxy)butoxy]phenyl}hex-4-ynoic acid], the EC50 stood at 350 nM.

`CC#CC(CC(=O)O)c1ccc(OCCCOc2ccc(C(F)(F)F)cc2Cl)cc1` (centres unmarked) [Example 4, 3-{4-[3-(2-chloro-4-trifluoromethylphenoxy)propoxy]phenyl}hex-4-ynoic acid]: the EC50 was 110 nM.

For `CC#CC(CC(=O)O)c1ccc(OCCCOc2cc(C(F)(F)F)cc(C(F)(F)F)c2)cc1` (centres unmarked) [Example 5, 3-{4-[3-(3,5-bis(Trifluoromethyl)phenoxy)propoxy]phenyl}hex-4-ynoic acid], the EC50 came out at 400 nM.

With `CC#CC(CC(=O)O)c1ccc(OCCCOc2ccccc2C(F)(F)F)cc1` (centres unmarked) [Example 6, 3-{4-[3-(2-Trifluoromethylphenoxy)propoxy]phenyl}hex-4-ynoic acid], the EC50 was determined as 170 nM.

For the compound `CC#CC(CC(=O)O)c1ccc(OCCCOc2cccc(C(F)(F)F)c2Cl)cc1` (centres unmarked) [Example 7, 3-{4-[3-(2-Chloro-3-trifluoromethylphenoxy)propoxy]phenyl}hex-4-ynoic acid], the EC50 is 720 nM.

For the compound `CC#CC(CC(=O)O)c1ccc(OCCCOc2ccc(C(F)(F)F)nc2)cc1` (centres unmarked) [Example 8, 3-{4-[3-(6-Trifluoromethylpyridin-3-yloxy)propoxy]phenyl}hex-4-ynoic acid], the concentration giving a half-maximal response (EC50) worked out at 350 nM.

With `CC#CC(CC(=O)O)c1ccc(OCCCOc2cc(C(F)(F)F)ccc2Cl)cc1` (centres unmarked) [Example 9, 3-{4-[3-(2-Chloro-5-trifluoromethylphenoxy)propoxy]phenyl}hex-4-ynoic acid], the EC50 is 610 nM.

On to `CC#CC(CC(=O)O)c1ccc(OCCOc2ccc(C(F)(F)F)nc2)cc1` (centres unmarked) [Example 10, 3-{4-[2-(6-Trifluoromethylpyridin-3-yloxy)ethoxy]phenyl}hex-4-ynoic acid], for which the EC50 worked out at 550 nM.

In the case of `CC#CC(CC(=O)O)c1ccc(OCCCOc2ccc(C(F)(F)F)cc2)cc1` (centres unmarked) [Example 11, 3-{4-[3-(4-Trifluoromethylphenoxy)propoxy]phenyl}hex-4-ynoic acid], the EC50 was determined as 80 nM.

In the case of `CC#CC(CC(=O)O)c1ccc(OCCCOc2cccc(C)c2)cc1` (centres unmarked) [Example 12, 3-{4-[3-m-Tolyloxypropoxy]phenyl}hex-4-ynoic acid], the EC50 was 70 nM.

Consider `CC#CC(CC(=O)O)c1ccc(OCCOc2cccc(Cl)c2)cc1` (centres unmarked) [Example 13], for which the EC50 amounted to 40 nM.

Take `CC#CC(CC(=O)O)c1ccc(OCCOc2cccc(C)c2)cc1` (centres unmarked) [Example 14, 3-{4-[2-m-Tolyloxyethoxy]phenyl}hex-4-ynoic acid]: the half-maximal effective concentration (EC50) is 50 nM.

For `CC#CC(CC(=O)O)c1ccc(OCCOc2cccc(C(F)(F)F)c2)cc1` (centres unmarked) [Example 15, 3-{4-[2-(3-Trifluoromethylphenoxy)ethoxy]phenyl}hex-4-ynoic acid], the EC50 worked out at 60 nM.

Take `CC#CC(CC(=O)O)c1ccc(OCCOc2ccc(C(C)(C)C)cc2)cc1` (centres unmarked) [Example 16, 3-{4-[2-(4-tert-Butylphenoxy)ethoxy]phenyl}hex-4-ynoic acid]: the concentration giving a half-maximal response (EC50) came out at 610 nM.

Take `CC#CC(CC(=O)O)c1ccc(OCCOc2ccccc2)cc1` (centres unmarked) [Example 17, 3-{4-[2-Phenoxyethoxy]phenyl}hex-4-ynoic acid]: the EC50 amounted to 360 nM.

As to `CC#CC(CC(=O)O)c1ccc(OCCOc2ccccc2F)cc1` (centres unmarked) [Example 18, 3-{4-[2-(2-Fluorophenoxy)ethoxy]phenyl}hex-4-ynoic acid], the EC50 was found to be 460 nM.

`CC#CC(CC(=O)O)c1ccc(OCCOc2ccccc2Cl)cc1` (centres unmarked) [Example 19, 3-{4-[2-(2-Chlorophenoxy)ethoxy]phenyl}hex-4-ynoic acid]: the 50% effective concentration (EC50) is 180 nM.

For `CC#CC(CC(=O)O)c1ccc(OCCOc2ccccc2C)cc1` (centres unmarked) [Example 20, 3-{4-[2-o-Tolyloxyethoxy]phenyl}hex-4-ynoic acid], the EC50 is 80 nM.

`CC#CC(CC(=O)O)c1ccc(OCCOc2ccccc2OC)cc1` (centres unmarked) [Example 21, 3-{4-[2-(2-Methoxyphenoxy)ethoxy]phenyl}hex-4-ynoic acid]: the EC50 came to 800 nM.

For the compound `CC#CC(CC(=O)O)c1ccc(OCCOc2ccccc2C(F)(F)F)cc1` (centres unmarked) [Example 22, 3-{4-[2-(2-Trifluoromethylphenoxy)ethoxy]phenyl}hex-4-ynoic acid], the EC50 was 50 nM.

As to `CC#CC(CC(=O)O)c1ccc(OC(C)CCOc2ccc(C(F)(F)F)cc2)cc1` (centres unmarked) [Example 25, 3-{4-[1-Methyl-3-(4-trifluoromethylphenoxy)propoxy]phenyl}hex-4-ynoic acid], the EC50 came out at 1990 nM.

In the case of `CC#CC(CC(=O)O)c1ccc(OCCC(C)Oc2cccc(C)c2)cc1` (centres unmarked) [Example 26, 3-[4-(3-m-Tolyloxybutoxy)phenyl]-hex-4-ynoic acid], the EC50 was 50 nM.

Regarding `CC#CC(CC(=O)O)c1ccc(OCC[C@@H](C)Oc2cccc(C)c2)cc1` (stereo partly drawn) [Example 27, 3-[4-((R)-3-m-Tolyloxybutoxy)phenyl]hex-4-ynoic acid], the concentration giving a half-maximal response (EC50) came out at 50 nM.

As to `CC#CC(CC(=O)O)c1ccc(OCC[C@H](C)Oc2cccc(C)c2)cc1` (stereo partly drawn) [Example 28, 3-[4-((S)-3-m-Tolyloxybutoxy)phenyl]hex-4-ynoic acid], the EC50 is 50 nM.

With `CC#CC(CC(=O)O)c1ccc(OCC[C@@H](C)Oc2ccccc2C(F)(F)F)cc1` (stereo partly drawn) [Example 29, 3-{4-[(R)-3-(2-Trifluoromethylphenoxy)butoxy]phenyl}hex-4-ynoic acid], the EC50 is 170 nM.

For the compound `CC#CC(CC(=O)O)c1ccc(OCC[C@H](C)Oc2ccccc2C(F)(F)F)cc1` (stereo partly drawn) [Example 30, 3-{4-[(S)-3-(2-Trifluoromethylphenoxy)butoxy]phenyl}hex-4-ynoic acid], the EC50 came out at 140 nM.

For `CC#CC(CC(=O)O)c1ccc(OCC[C@@H](C)Oc2ccc(C(F)(F)F)cc2Cl)cc1` (stereo partly drawn) [Example 31, 3-{4-[(R)-3-(2-Chloro-4-trifluoromethylphenoxy)butoxy]phenyl}hex-4-ynoic acid], the EC50 was 640 nM.

Consider `CC#CC(CC(=O)O)c1ccc(OCC[C@H](C)Oc2ccc(C(F)(F)F)cc2Cl)cc1` (stereo partly drawn) [Example 32, 3-{4-[(S)-3-(2-Chloro-4-trifluoromethylphenoxy)butoxy]phenyl}hex-4-ynoic acid], for which the EC50 was found to be 770 nM.

As for `CC#CC(CC(=O)O)c1ccc(OC(C)CCOc2cccc(C(C)(C)C)c2)cc1` (centres unmarked) [Example 33, 3-{4-[3-(3-tert-Butylphenoxy)-1-methylpropoxy]phenyl}hex-4-ynoic acid], the EC50 was determined as 1610 nM.

With `CC#CC(CC(=O)O)c1ccc(OCC(C)COc2ccc(C(F)(F)F)cc2)cc1` (centres unmarked) [Example 34, 3-{4-[2-Methyl-3-(4-trifluoromethylphenoxy)propoxy]phenyl}hex-4-ynoic acid], the EC50 stood at 810 nM.

As to `CC#CC(CC(=O)O)c1ccc(OCC(C)COc2cccc(C(C)(C)C)c2)cc1` (centres unmarked) [Example 35, 3-{4-[3-(3-tert-Butylphenoxy)-2-methylpropoxy]phenyl}hex-4-ynoic acid], the EC50 amounted to 1090 nM.

As for `CC#CC(CC(=O)O)c1ccc(OCC(C)COc2cc(C)ccc2C(C)C)cc1` (centres unmarked) [Example 36, 3-{4-[3-(2-Isopropyl-5-methylphenoxy)-2-methylpropoxy]phenyl}hex-4-ynoic acid], the EC50 is 1590 nM.

`CC#CC(CC(=O)O)c1ccc(OCC(C)COc2ccc(C(C)(C)C)cc2Cl)cc1` (centres unmarked) [Example 37, 3-{4-[3-(4-tert-Butyl-2-chlorophenoxy)-2-methylpropoxy]phenyl}hex-4-ynoic acid]: the EC50 stood at 6010 nM.

As to `CC#CC(CC(=O)O)c1ccc(OCC(C)COc2ccccc2C(F)(F)F)cc1` (centres unmarked) [Example 38, 3-{4-[2-methyl-3-(2-trifluoromethylphenoxy)propoxy]phenyl}hex-4-ynoic acid], the EC50 amounted to 730 nM.

For `CC#CC(CC(=O)O)c1ccc(OCC(C)COc2cc(C(C)C)ccc2C)cc1` (centres unmarked) [Example 39, 3-{4-[3-(5-Isopropyl-2-methylphenoxy)-2-methylpropoxy]phenyl}hex-4-ynoic acid], the EC50 was 3200 nM.

For the compound `CC#CC(CC(=O)O)c1ccc(OCC(C)COc2ccc(Br)c(Cl)c2)cc1` (centres unmarked) [Example 40, 3-{4-[3-(4-Bromo-3-chlorophenoxy)-2-methylpropoxy]phenyl}hex-4-ynoic acid], the concentration for a half-maximal effect (EC50) amounted to 830 nM.

On to `CC#CC(CC(=O)O)c1ccc(OCC(C)(C)COc2ccc(C(F)(F)F)cc2)cc1` (centres unmarked) [Example 41, 3-{4-[2,2-dimethyl-3-(4-trifluoromethylphenoxy)propoxy]phenyl}hex-4-ynoic acid], for which the EC50 came out at 800 nM.

Source of the values: patent US20120004166A1, “ARYLOXYALKYLENE-SUBSTITUTED HYDROXYPHENYLHEXYNOIC ACIDS, PROCESS FOR PREPARATION THEREOF AND USE THEREOF AS A MEDICAMENT” (SANOFI, priority 2010, published 2012).
